Test results published in patent US20230021483A1, “[…] […] METHOD AND CLASSIFICATION OF PHARMACEUTICAL COMPONENTS BY USING TRANSCRIPTOMES” (National Institutes of Biomedical Innovation, Health and …, priority 2016, published 2023).
“And” between values parts separate entries of the source, which are not always exact repeats. Identical values can stand only once.

Legend:
Type in all cases: in vivo, C57BL/6 mice
LV, SP and LNs = assay: Whole organ transcriptome across organs (adjuvant gene space): gene responses and adjuvant grouping
[1] = test system: inguinal lymph nodes (LN); assay: Whole organ transcriptome (GeneChip microarray) of draining inguinal lymph nodes 6 h after adjuvant administration: sDEGs, gene modules, hierarchical clustering; details: lymph node; on adjuvant group (cluster) in LN: key: G1 (interferon signaling); G2 (metabolism of lipids and lipoproteins); G3 (response to stress); G4 (response to wounding); G5 (phosphate-containing compound metabolic process); G6 (phagosome)
[2] = test system: preferentially upregulated genes in LV, SP, LN; assay: Z-score-based differential gene expression analysis (adjuvant group- or adjuvant-associated genes, 40 module mapping, TargetMine annotation); details: liver (LV); gene group G1, module 20; individual mice x1-x3; route ID/IP/IN
Procedure, shortened: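 Gene groups for each organ were built from combined z-score cutoffs across adjuvants, ranging from z>1 to z>3. Scores came from fold changes standardized per gene over the whole organ data set, with the three replicate z-scores added per adjuvant; sums above 3 marked preferential expression.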

## heptanoyl-γ-D-glutamyl-(L)-meso-diaminopimelyl-(D)-alanine [FK565]
LV, SP and LNs; 6 h after i.d. (local) administration
  distribution/strength of gene responses between local LNs and systemic organs (LV, SP): greater responses in LV and SP than in LNs
LV, SP and LNs; hierarchical clustering, LV, SP and/or LNs
  adjuvant group (cluster) within the adjuvant gene space: G3
[1]; hierarchical clustering
  adjuvant group (cluster) in LN: G3
[1]; i.d. administration, fold change <0.667, p<0.01, customized PA call=1, 6 h after adjuvant
  Number of gene probes with statistically significant changes (sDEGs), LN, Down: 306
[1]; i.d. administration, fold change >1.5, p<0.01, customized PA call=1, 6 h after adjuvant
  Number of gene probes with statistically significant changes (sDEGs), LN, Up: 526
[2]
  Z score of gene expression, Adar (probe 1425405_a_at): −0.4 (2×) and −0.5
  Z score of gene expression, Adar (probe 1434268_at): −0.1
  Z score of gene expression, Ddx58 (probe 1436562_at): −0.2 (2×) and −0.3
  Z score of gene expression, Ddx58 (probe 1456890_at): −0.5 (2×) and −0.1
  Z score of gene expression, Eif2ak2 (probe 1422005_at): 0.05 and 0.09 and −0.1
  Z score of gene expression, G3bp2 (probe 1421323_a_at): −0.3 (2×) and −0.2
  Z score of gene expression, Gm9706///Isg15 (probe 1431591_s_at): −0.1 (2×) and −0.2
  Z score of gene expression, H2-T10///H2-T22///H2-T9 (probe 1449875_s_at): 0.21 and 0.04 and 0.29
  Z score of gene expression, Ifih1 (probe 1426276_at): −0.3
  Z score of gene expression, Ifit1 (probe 1449025_at): −0.4
  Z score of gene expression, Ifit1 (probe 1450783_at): −0.4
  Z score of gene expression, Irf7 (probe 1417244_a_at): −0.3 (2×) and −0.4
  Z score of gene expression, Irgm1 (probe 1418825_at): 0.07 and 0.13 and 0.08
  Z score of gene expression, Mndal (probe 1426906_at): −0.4 and −0.5 (2×)
  Z score of gene expression, Pml (probe 1448757_at): −0.5 and −0.6 and −0.8
  Z score of gene expression, Pml (probe 1456103_at): −0.5
  Z score of gene expression, Rnf213 (probe 1455500_at): 0.02 and 0.06 and 0.03
  Z score of gene expression, Rsad2 (probe 1436058_at): −0.4
  Z score of gene expression, Shisa5 (probe 1423986_a_at): −0.1 and 0.01 and 0.18
  Z score of gene expression, Shisa5 (probe 1437503_a_at): −0.2 and −0.3 and −0.1
  Z score of gene expression, Stat1 (probe 1450033_a_at): −0.1 and −0 and 0
  Z score of gene expression, Stat1 (probe 1450034_at): −0.1 (2×) and −0
  Z score of gene expression, Tdrd7 (probe 1426716_at): −0.5 (2×) and −0.4
  Z score of gene expression, Tor1aip2 (probe 1418115_s_at): −0.6 and −0.5 (2×)
  Z score of gene expression, Tor1aip2 (probe 1418116_at): −0.7 (2×) and −0.9
  Z score of gene expression, Tor1aip2 (probe 1435526_at): −0.8 and −0.9 (2×)
  Z score of gene expression, Trim12a (probe 1437432_a_at): 0.1 and −0.1 and −0.2
  Z score of gene expression, Uba7 (probe 1426970_a_at): −0.4 and −0.5 and −0.3
